Experimental data reported in patent publication US6531584B1, “2'modified oligonucleotides” (ISIS Pharmaceuticals, Inc., priority 1990, dated 2003).
“Also recorded” adds a separate entry of the source.

Experiments:
[1] = test system: ras mRNA; experiment: Northern blot analysis of ras expression in T24 cells; type: cell-based, human; parameters: inhibition of ras expression / decrease of ras mRNA: concentration or dose not given beside the values; settings: for inhibition of ras expression: T24 cells (activated codon-12); for inhibition of ras expression / decrease of ras mRNA: T24 cells, Northern blot
Method: (§1) The human urinary bladder cancer cell line T24 was obtained from the American Type Culture Collection (Rockville Md.). Cells were grown in McCoy's 5A medium with L-glutamine (GIBCO-BRL, Gaithersburg, Md.), supplemented with 10% heat-inactivated fetal calf serum and 50 U/ml each of penicillin and streptomycin. Cells were seeded on 100 mm plates. When they reached 70% confluency, they were treated with oligonucleotide. Plates were washed with 10 ml prewarmed PBS and 5 ml of OptiMEM (GIBCO) reduced-serum medium containing 2.5 μl DOTMA. Oligonucleotide was then added to the desired concentration. After 4 hours of treatment, the medium was replaced with McCoy's medium. Cells were harvested 48 hours after oligonucleotide treatment and RNA was isolated using a standard CsCl purification method. [Kingston in Current Protocols in Molecular Biology, F. M. Ausubel, R. Brent, R. E. Kingston, D. D. Moore, J. A. Smith, J. G. Seidman and K. Strahl, Eds., John Wiley and Sons, New York.] The human epithelioid carcinoma cell line HeLa 229 was obtained from the American Type Culture Collection (Bethesda, Md.). HeLa cells were maintained as monolayers on 6-well plates in Dulbecco's Modified Eagle's medium (DMEM) supplemented with 10% fetal bovine serum and 100 U/ml penicillin. Treatment with oligonucleotide and isolation of RNA were essentially as described above for T24 cells.
Northern hybridization: 10 μg of each RNA was electrophoresed on a 1.2% agarose/formaldehyde gel and transferred overnight to GeneBind 45 nylon membrane (Pharmacia LKB, Piscataway, N.J.) using standard methods. [Kingston in Current Protocols in Molecular Biology, F. M. Ausubel, R. Brent, R. E. Kingston, D. D. Moore, J. A. Smith, J. G. Seidman and K. Strahl, Eds., John Wiley and Sons, New York.] RNA was UV-crosslinked to the membrane. Double-stranded ^32P-labeled probes were synthesized using the Prime a Gene labeling kit (Promega, Madison, Wis.). The ras probe was a SalI-NheI fragment of a cDNA clone of the activated (mutant) H-ras mRNA having a GGC-to-GTC mutation at codon-12. The control probe was G3PDH. Blots were prehybridized for 15 minutes at 68° C. with the QuickHyb hybridization solution (Stratagene, La Jolla, Calif.). The heat-denatured radioactive probe (2.5×10^6 counts/2 ml hybridization solution) mixed with 100 μl of 10 mg/ml salmon sperm DNA was added and the membrane was hybridized for 1 hour at 68° C. The blots were washed twice for 15 minutes at room temperature in 2×SSC/0.1% SDS and once for 30 minutes at 60° C. with 0.1×SSC/0.1%SDS. Blots were autoradiographed and the intensity of signal was quantitated using an ImageQuant PhosphorImager (Molecular Dynamics, Sunnyvale, Calif.). Northern blots were first hybridized with the ras probe, then stripped by boiling for 15 minutes in 0.1×SSC/0.1%SDS and rehybridized with the control G3PDH probe to check for correct sample loading.

[2] = test system: ras mRNA (wild-type H-ras codon-12); experiment: Northern blot analysis of ras expression in HeLa cells; type: cell-based, human; settings: HeLa cells (wild-type H-ras codon-12)
Method: as §1, with “The human epithelioid carcinoma cell line HeLa 229 was obtained from the American Type Culture Collection (Bethesda, Md.). HeLa cells were maintained as monolayers on 6-well plates in Dulbecco's Modified Eagle's medium (DMEM) supplemented with 10% fetal bovine serum and 100 U/ml penicillin. Treatment with oligonucleotide and isolation of RNA were essentially as described above for T24 cells.” left out
Northern hybridization: 10 μg of each RNA was electrophoresed on a 1.2% agarose/formaldehyde gel and transferred overnight to GeneBind 45 nylon membrane (Pharmacia LKB, Piscataway, N.J.) using standard methods. […] Blots were autoradiographed and the intensity of signal was quantitated using an ImageQuant PhosphorImager (Molecular Dynamics, Sunnyvale, Calif.). […]

[3] = test system: c-raf mRNA; experiment: Northern blot analysis of c-raf mRNA expression in T24 cells; type: cell-based, human
Text: Chimeric oligonucleotides having SEQ ID NO:7 were designed using the Genbank c-raf sequence HUMRAFR (Genbank listing x03484), synthesized and tested for inhibition of c-raf mRNA expression in T24 bladder carcinoma cells using a Northern blot assay. These chimeric oligonucleotides have central “gap” regions of 6, 8 or 10 deoxynucleotides flanked by two regions of 2′-O-methyl modified nucleotides, and are shown in Table 10. Backbones were uniformly phosphorothioate. […] These oligonucleotides are preferred.
The human urinary bladder cancer cell line T24 was obtained from the American Type Culture Collection (Rockville, Md.). Cells were grown in McCoy's 5A medium with L-glutamine (GIBCO-BRL, Gaithersburg, Md.), supplemented with 10% heat-inactivated fetal calf serum and 50 U/ml each of penicillin and streptomycin. Cells were seeded on 100 mm plates. When they reached 70% confluency, they were treated with oligonucleotide. Plates were washed with 10 ml prewarmed PBS and 5 ml of OptiMEM reduced-serum medium containing 2.5 μl DOTMA. Oligonucleotide with lipofectin was then added to the desired concentration. After 4 hours of treatment, the medium was replaced with McCoy's medium. Cells were harvested 24 to 72 hours after oligonucleotide treatment and RNA was isolated using a standard CsCl purification method. [Kingston in Current Protocols in Molecular Biology, F. M. Ausubel, R. Brent, R. E. Kingston, D. D. Moore, J. A. Smith, J. G. Seidman and K. Strahl, Eds., John Wiley and Sons, New York.] Total RNA was isolated by centrifugation of cell lysates over a CsCl cushion. RNA samples were electrophoresed through 1.2% agarose-formaldehyde gels and transferred to hybridization. membranes by capillary diffusion over a 12-14 hour period. The RNA was cross-linked to the membrane by exposure to UV light in a Stratalinker (Stratagene, La Jolla, Calif.) and hybridized to random-primed ^32P-labeled c-raf cDNA probe (obtained from ATCC) or G3PDH probe as a control. RNA was quantitated using a Phosphorimager (Molecular Dynamics, Sunnyvale, Calif.).

[4] = test system: RNA complement “Y” strand ribo(3′GAG CAU GGY AAG GCC AGG5′); experiment: Base-pair specificity: single base mismatches and bulge, thermal melting; type: binding; settings: single base-pair mismatches and a bulge
Method: The ability of the 2′-modified oligonucleotides to hybridize to their complementary RNA or DNA sequences was determined by thermal melting analysis. The RNA complement was synthesized from T7 RNA polymerase and a template-promoter of DNA synthesized with an Applied Biosystems, Inc. 380B RNA species was purified by ion exchange using FPLC (LKB Pharmacia, Inc.). Natural antisense oligonucleotides or those containing 2′-modifications at specific locations were added to either the RNA or DNA complement at stoichiometric concentrations and the absorbance (260 nm) hyperchromicity upon duplex to random coil transition was monitored using a Gilford Response II spectrophotometer. These measurements were performed in a buffer of 10 mM Na-phosphate, pH 7.4, 0.1 mM EDTA, and NaCl to yield an ionic strength of 10 either 0.1 M or 1.0 M. Data was analyzed by a graphic representation of 1/Tm vs ln[Ct], where [Ct] was the total oligonucleotide concentration. From this analysis the thermodynamic parameters were determined. Based upon the information gained concerning the stability of the duplex of heteroduplex formed, the placement of modified pyrimidine into oligonucleotides were assessed for their effects on helix stability.
Base-pair specificity of 2′-deoxy-2′-fluoro modified oligonucleotides with the RNA complement (a “Y” strand) was determined by effecting single base-pair mismatches and a bulge. […]

[5] = test system: mutant (activated) H-ras RNA; type: cell-based, human
[6] = test system: T24 cancer cell; experiment: Inhibition of proliferation of cancer cells; type: cell-based, human; settings: 100 nM oligonucleotide concentration
Method: Cells were cultured and treated with oligonucleotide essentially as described in Example 27. Cells were seeded on 60 mm plates and were treated with oligonucleotide in the presence of DOTMA when they reached 70% confluency. Time course experiment: On day 1, cells were treated with a single dose of oligonucleotide at a final concentration of 100 nM. The growth medium was changed once on day 3 and cells were counted every day for 5 days, using a counting chamber. Dose-response experiment: Various concentrations of oligonucleotide (10, 25, 50, 100 or 250 nM) were added to the cells and cells were harvested and counted 3 days later. Oligonucleotides 2570, 3985 and 4690 were tested for effects on T24 cancer cell proliferation. EXAMPLE 29

For “TCCGTCATCGCTCCTCAGGG [Oligonucleotide 2503]”, the “inhibition of ras expression” value [1] was “inhibited ras expression in T24 cells”, the “inhibition of ras expression / decrease of ras mRNA” value ([1]; listed as 2503) was 71% and the “inhibition of ras expression” value [2] was “inhibited ras expression in HeLa cells”.

“CTCGCCCGCTCCTCCTCCCC (2'-O-methyl P=S chimera, chemistry not fully specified) [ISIS 7849]” was tested, and the “inhibition of c-raf mRNA expression” value [3] was > 70%.

In the case of “TCCCGCCTGTGACATGCATT (2'-O-methyl P=S chimera, 8-deoxy gap, chemistry not fully specified) [ISIS 6717]”, the “inhibition of c-raf mRNA expression” value [3] is reported as “greater than 90%”.

With “TCCTCCTCCCCGCGGCGGGT (2'-O-methyl P=S chimera, chemistry not fully specified) [ISIS 7848]” the “inhibition of c-raf mRNA expression” value [3] was > 70%.

In the case of “deoxy(CUC GUACCUUUCCGG UCC) (CUCGUACCUUUCCGGUCC; 14 2'-deoxy-2'-fluoro nucleotides, chemistry not fully specified)”, the “specificity of duplex formation with the RNA complement” value [4] is reported as “greater specificity than a like-sequenced unmodified oligonucleotide”.

With “TTCTCGCCCGCTCCTCCTCC (2'-O-methyl P=S chimera, chemistry not fully specified) [ISIS 7856]” the “inhibition of c-raf mRNA expression” value [3] was > 70%.

For “CdCdAd CdAdCd CdGdAd CdGdGd CdGdCd CdCd [Oligonucleotide 2570, reference compound]”, the “inhibition of ras-luciferase activity” value [5] was “dose-dependent inhibition of ras-luciferase activity”, the “selectivity toward the mutant form of ras-luciferase as compared to the normal form” value [5] was “approximate threefold selectivity” and the “inhibition of ras expression” value [1] was “inhibited ras expression in T24 cells; also recorded: decreased ras mRNA levels in T24 cells”. The “inhibition of ras expression / decrease of ras mRNA” value [1] was 82%, the “inhibition of ras expression” value [2] was “did not inhibit ras expression in HeLa cells” and the “inhibition of T24 cell proliferation relative to inhibition of HeLa cells” value [6] was “four times as severe”.
